Values of other authors, collected in US20050260263A1, “Sustained release formulation for sparingly soluble main drugs” (Panion & BF Biotech Inc., priority 2004, published 2005).
Where two headings read alike, the source gives them in different places.

| Solubility (water) | Solubility (gastric fluid) | Solubility (region of the lower intestine (pH 6 to 8)) | Solubility (upper region of the small intestine (pH 5.0)) | Structure (SMILES) |
| --- | --- | --- | --- | --- |
| only slightly soluble | – | – | – | CC[C@H]1OC(=O)[C@H](C)[C@@H](O[C@H]2C[C@@](C)(OC)[C@@H](O)[C@H](C)O2)[C@H](C)[C@@H](O[C@@H]2O[C@H](C)C[C@H](N(C)C)[C@H]2O)[C@](C)(O)C[C@@H](C)C(=O)[C@H](C)[C@@H](O)[C@]1(C)O [Erythromycin] |
| – | very soluble | poorly soluble | fairly soluble | CC[C@H]1OC(=O)[C@H](C)[C@@H](O[C@H]2C[C@@](C)(OC)[C@@H](O)[C@H](C)O2)[C@H](C)[C@@H](O[C@@H]2O[C@H](C)C[C@H](N(C)C)[C@H]2O)[C@](C)(OC)C[C@@H](C)C(=O)[C@H](C)[C@@H](O)[C@]1(C)O [clarithromycin] |
